Results as given in patent US20200371122A1, “BIOMARKER FOR SENESCENT CELLS” (Buck Institute for Research on Aging, priority 2017, published 2020).

Legend:
Assay type in all cases: in vivo, mouse
[1] = system: C57BL6/J and p16-3MR mice injured with bleomycin; experiment: Bleomycin-induced pulmonary fibrosis in mice
Procedure: RNA was extracted from cells or tissues using commercially available kits (Isolate II—Bioline for cells; Direct-zol—Zymo for tissues) according to the manufacturer's instructions. cDNA synthesis was performed using a High Capacity cDNA Reverse Transcription Kit (Thermo Fisher) according to the manufacturer's instructions. Quantitative PCR was performed on a LightCycler 480 II (Roche) using primers and probes designed for the Universal Probe Library. Primers and probes used for human transcripts were ACTB: 5′-CCAACCGCGAGAAGATGA (SEQ ID NO:1), 5′-TCCATCACGATGCCAGTG (SEQ ID NO:2), Probe #64; TUBA: 5′-cttcgtctccgccatcag (SEQ ID NO:3), 5′-ttgccaatctggacacca (SEQ ID NO:4), Probe #58; ALOX5: 5′-[…] (SEQ ID NO:5), 5′-[…] (SEQ ID NO:6), Probe #64; ALOX5AP: 5′-ggtctgcggggctacttt (SEQ ID NO:7), 5′-[…] (SEQ ID NO:8), Probe #18; ALOX12: 5′-[…] (SEQ ID NO:9), 5′-agccaggtcgtcaggag (SEQ ID NO:10), Probe #32; ALOX15: 5′-[…] (SEQ ID NO:11), 5′-[…] (SEQ ID NO:12), Probe #76; ALOX15B: 5′-[…] (SEQ ID NO:13), 5′-actgggaggcgaagaagg (SEQ ID NO:14), Probe #51; AKR1C1: 5′-catgcctgtcctgggattt (SEQ ID NO:15), 5′-[…] (SEQ ID NO:16), Probe #49; AKR1C2: 5′-ctatgcgcctgcagaggt (SEQ ID NO:17), 5′-[…] (SEQ ID NO:18), Probe #31; AKR1C3: 5′-[…] (SEQ ID NO:19), 5′-[…] (SEQ ID NO:20), Probe #78; CYSLTR2: 5′-[…] (SEQ ID NO:21), 5′-[…] (SEQ ID NO:22), Probe #18; DPEP1: 5′-gacgtcctgaggctggtg (SEQ ID NO:23), 5′-[…] (SEQ ID NO:24), Probe #9 (SEQ ID NO:25), ELOVL2: 5′-[…] (SEQ ID NO:26), 5′-[…] (SEQ ID NO:27), Probe #53; ELOVL4: 5′-catttggcccatggattc (SEQ ID NO:28), 5′-[…] (SEQ ID NO:29), Probe #31; ELOVL5: 5′-cccttccatgcgtccata (SEQ ID NO:30), 5′-[…] (SEQ ID NO:31), Probe #31; EPHX2: 5′-ttctgctggacaccctgaa (SEQ ID NO:32), 5′-[…] (SEQ ID NO:33), Probe #45; GPX4: 5′-ttcccgtgtaaccagttcg (SEQ ID NO:34), 5′-[…] (SEQ ID NO:35), Probe #36; LTA4H: 5′-ctgctctcacggtccagtc (SEQ ID NO:36), 5′-[…] (SEQ ID NO:37), Probe #64; LTBR2: 5′-[…] (SEQ ID NO:38), 5′-[…] (SEQ ID NO:39), Probe #33; LTC4S: 5′-[…] (SEQ ID NO:40), 5′-[…] (SEQ ID NO:41), Probe #18; PTGDS: 5′-[…] (SEQ ID NO:42), 5′-[…] (SEQ ID NO:43), Probe #36; PTGES: 5′-agagatgcctgcccacag (SEQ ID NO:44), 5′-tggccaccacgtacatctt (SEQ ID NO:45), Probe #4; PTGES2: 5′-[…] (SEQ ID NO:46), 5′-[…] (SEQ ID NO:47), Probe #49; PTGES3 (SEQ ID NO:48), 5′-[…] (SEQ ID NO:49), 5′-[…] (SEQ ID NO:50), Probe #48; PTGIS: 5′-[…] (SEQ ID NO:51), 5′-[…] (SEQ ID NO:52), Probe #45; PTGR1: 5′-atgatggggcagcaagtg (SEQ ID NO:53), 5′-cccatcagaaatggagtgc (SEQ ID NO:54), Probe #64; PTGS1: 5′-[…] (SEQ ID NO:55), 5′-gtggtggtccatgttcctg (SEQ ID NO:56), Probe #81; PTGS2: 5′-gatccccagggctcaaac (SEQ ID NO:57), 5′-[…] (SEQ ID NO:58), Probe #61; TBXAS1: 5′-[…] (SEQ ID NO:59), 5′-tgcctcccgtgtgaatct (SEQ ID NO:60), Probe #73; AREG: 5′-[…] (SEQ ID NO:61), 5′-[…] (SEQ ID NO:62), Probe #73; CCL2: 5′-AGTCTCTGCCGCCCTTCT (SEQ ID NO:63), 5′-GTGACTGGGGCATTGATTG (SEQ ID NO:64), Probe #40; CCL27: 5′-[…] (SEQ ID NO:65), 5′-gctgggtggcagtaggaat (SEQ ID NO:66), Probe #18; CXCL1: 5′-[…] (SEQ ID NO:67), 5′-[…] (SEQ ID NO:68), Probe #52; HGF: 5′-[…] (SEQ ID NO:69), 5′-[…] (SEQ ID NO:70), Probe #49; ILIA: 5′-[…] (SEQ ID NO:71), 5′-[…] (SEQ ID NO:72), Probe #6; IL1B: 5′-[…] (SEQ ID NO:73), 5′-[…] (SEQ ID NO:74), Probe #78; IL6: 5′-[…] (SEQ ID NO:75), 5′-gaaggcagcaggcaacac (SEQ ID NO:76), Probe #45; IL8: 5′-[…] (SEQ ID NO:77), 5′-atggttccttccggtggt (SEQ ID NO:78), Probe #72; IL10: 5′-[…] (SEQ ID NO:79), 5′-[…] (SEQ ID NO:80), Probe #67; MMP3: 5′-[…] (SEQ ID NO:81), 5′-[…] (SEQ ID NO:82), Probe #36; PDGFA: 5′-[…] (SEQ ID NO:83), 5′-[…] […]

[2] = system: C57BL6/J and p16-3MR mice injured with bleomycin; experiment: Bleomycin-induced pulmonary fibrosis in mice; remark: listed apart in the source
p16-positive cells = experiment: Eicosanoid synthase gene expression in livers of doxorubicin-treated or aged p16-3MR mice; conditions: liver
Procedure: RNA was extracted from cells or tissues using commercially available kits (Isolate II—Bioline for cells; Direct-zol—Zymo for tissues) according to the manufacturer's instructions. cDNA synthesis was performed using a High Capacity cDNA Reverse Transcription Kit (Thermo Fisher) according to the manufacturer's instructions. Quantitative PCR was performed on a LightCycler 480 II (Roche) using primers and probes designed for the Universal Probe Library. Primers and probes used for human transcripts were ACTB: 5′-CCAACCGCGAGAAGATGA (SEQ ID NO:1), 5′-TCCATCACGATGCCAGTG (SEQ ID NO:2), Probe #64; TUBA: 5′-cttcgtctccgccatcag (SEQ ID NO:3), 5′-ttgccaatctggacacca (SEQ ID NO:4), Probe #58; ALOX5: 5′-[…] (SEQ ID NO:5), 5′-[…] (SEQ ID NO:6), Probe #64; ALOX5AP: 5′-ggtctgcggggctacttt (SEQ ID NO:7), 5′-[…] (SEQ ID NO:8), Probe #18; ALOX12: 5′-[…] (SEQ ID NO:9), 5′-agccaggtcgtcaggag (SEQ ID NO:10), Probe #32; ALOX15: 5′-[…] (SEQ ID NO:11), 5′-[…] (SEQ ID NO:12), Probe #76; ALOX15B: 5′-[…] (SEQ ID NO:13), 5′-actgggaggcgaagaagg (SEQ ID NO:14), Probe #51; AKR1C1: 5′-catgcctgtcctgggattt (SEQ ID NO:15), 5′-[…] (SEQ ID NO:16), Probe #49; AKR1C2: 5′-ctatgcgcctgcagaggt (SEQ ID NO:17), 5′-[…] (SEQ ID NO:18), Probe #31; AKR1C3: 5′-[…] (SEQ ID NO:19), 5′-[…] (SEQ ID NO:20), Probe #78; CYSLTR2: 5′-[…] (SEQ ID NO:21), 5′-[…] (SEQ ID NO:22), Probe #18; DPEP1: 5′-gacgtcctgaggctggtg (SEQ ID NO:23), 5′-[…] […]

[3] = bleomycin-treated animals, day 14, ELISA

Nc1nc(O)c2ncn(COC(CO)CO)c2n1 [GCV, ganciclovir]
RNA levels of p16INK4a and p21WAF1 in lungs ([1]; 14 days after bleomycin injury): significantly attenuated | collagen expression (Col3a1 and Col4a1) ([1]; bleomycin-injured mice, 21 days after injury as printed): reduced | collagen content (hydroxyproline) ([2]; 21 days after injury): reduced | cysteinyl leukotrienes in bronchioalveolar lavage fluid (BALF) [2, 3]: reduced | prostaglandin E2 in bronchioalveolar lavage fluid (BALF) [2, 3]: reduced | eicosanoid synthase expression (p16-positive cells; doxorubicin-treated p16-3MR mice, day 10): reduced | eicosanoid synthase expression (p16-positive cells; p16-3MR mice aged 21 months): not statistically significant
